Source: patent publication US10959432B2, “Microbiocidal oxadiazole derivatives” (Syngenta Participations AG, priority 2016, dated 2021)

What was measured:
[1] = tested on: Puccinia recondita f. sp. tritici; assay: Fungicidal activity against Puccinia recondita f. sp. tritici / wheat / leaf disc preventative (brown rust); type: in vivo; conditions: foliar, 200 ppm in the applied formulation, wheat leaf segments cv. Kanzler, preventative (inoculated 1 day after application), assessed 7 to 9 days after application, read-out: disease control compared to untreated control leaf disks
Procedure, shortened: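 Preventative leaf-segment test: compound sprayed at 200 ppm onto wheat (cv. Kanzler) segments, brown rust spores applied 1 day after. Kept at 19C and 75% rh under 12 h light/dark cycles; disease control versus untreated check read 7 to 9 days post-application.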

[2] = tested on: Puccinia recondita f. sp. tritici; assay: Fungicidal activity against Puccinia recondita f. sp. tritici / wheat / leaf disc curative (brown rust); type: in vivo; conditions: foliar, 200 ppm in the applied formulation, wheat leaf segments cv. Kanzler, curative (applied 1 day after inoculation), assessed 6 to 8 days after application, read-out: disease control compared to untreated control leaf disks
Procedure, shortened: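 Curative test: compound, diluted from DMSO stock into water, applied one day after spore inoculation of wheat (cv. Kanzler) leaf segments kept on agar in darkness at 19° C. and 75% RH. Climate-cabinet incubation (19° C., 75% RH, 12 h photoperiod); disease control relative to untreated read 6–8 days post-application.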

Phakopsora pachyrhizi = assay: Fungicidal activity against Phakopsora pachyrhizi / soybean / leaf disc preventative (Asian soybean rust); type: in vivo; conditions: foliar, 200 ppm in the applied formulation, soybean leaf disks, preventative (inoculated one day after application), assessed 12 to 14 days after application, read-out: disease control compared to untreated control leaf disks
Procedure, shortened: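 Preventative test: compound applied to soybean leaf discs a day before spore inoculation of the lower surface. Discs kept at 20° C and 75% rh, first 24-36 h in darkness, then under 12 h light/day; disease control relative to untreated discs rated 12 to 14 days post-application.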

[3] = tested on: Glomerella laqenarium (Colletotrichum lagenarium); assay: Fungicidal activity against Glomerella lagenarium (Colletotrichum lagenarium) liquid culture / cucumber / preventative (anthracnose); type: cell-based; conditions: Colletotrichum orbiculare; 20 ppm in the applied formulation; liquid culture in PDB, 24° C., 3 to 4 days after application; read-out: disease control compared to untreated control (inhibition of growth measured photometrically)
Procedure, shortened: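 Test compound, applied from DMSO solution, is combined with PDB containing conidia taken from cryogenic storage. After 3–4 days at 24 °C, growth is measured photometrically and antifungal activity expressed as percent relative to untreated control.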

CCC(COC)NC(=O)c1ccc(-c2noc(C(F)(F)F)n2)cc1F (stereo not shown) [Compound 3b.11, 2-fluoro-N-[1-(methoxymethyl)propyl]-4-[5-(trifluoromethyl)-1,2,4-oxadiazol-3-yl]benzamide]
≥ 80%: pest or weed control at 200 ppm [1] | pest or weed control at 200 ppm [2] | pest or weed control at 200 ppm (Phakopsora pachyrhizi) | inhibition at 20 ppm [3]

CCOC(C)CNC(=O)c1ccc(-c2noc(C(F)(F)F)n2)cc1F (stereo not shown) [Compound 3b.12, N-(2-ethoxypropyl)-2-fluoro-4-[5-(trifluoromethyl)-1,2,4-oxadiazol-3-yl]benzamide]
≥ 80%: pest or weed control at 200 ppm [1] | pest or weed control at 200 ppm [2] | pest or weed control at 200 ppm (Phakopsora pachyrhizi) | inhibition at 20 ppm [3]

CC(C)CN(C)C(=O)c1ccc(-c2noc(C(F)(F)F)n2)cc1F [Compound 3b.14, 2-fluoro-N-isobutyl-N-methyl-4-[5-(trifluoromethyl)-1,2,4-oxadiazol-3-yl]benzamide]
≥ 80%: pest or weed control at 200 ppm [1] | pest or weed control at 200 ppm [2] | pest or weed control at 200 ppm (Phakopsora pachyrhizi) | inhibition at 20 ppm [3]

CC(=O)CC(C)(C)NC(=O)c1ccc(-c2noc(C(F)(F)F)n2)cc1F [Compound 3b.15, N-(1,1-dimethyl-3-oxo-butyl)-2-fluoro-4-[5-(trifluoromethyl)-1,2,4-oxadiazol-3-yl]benzamide]
≥ 80%: pest or weed control at 200 ppm [1] | pest or weed control at 200 ppm [2] | pest or weed control at 200 ppm (Phakopsora pachyrhizi) | inhibition at 20 ppm [3]

CCC(O)CNC(=O)c1ccc(-c2noc(C(F)(F)F)n2)cc1F (stereo not shown) [Compound 3b.16, 2-fluoro-N-(2-hydroxybutyl)-4-[5-(trifluoromethyl)-1,2,4-oxadiazol-3-yl]benzamide]
≥ 80%: pest or weed control at 200 ppm [1] | pest or weed control at 200 ppm [2] | pest or weed control at 200 ppm (Phakopsora pachyrhizi) | inhibition at 20 ppm [3]

COCCN(C)C(=O)c1ccc(-c2noc(C(F)(F)F)n2)cc1F [Compound 3b.19, 2-fluoro-N-(2-methoxyethyl)-N-methyl-4-[5-(trifluoromethyl)-1,2,4-oxadiazol-3-yl]benzamide]
≥ 80%: pest or weed control at 200 ppm [1] | pest or weed control at 200 ppm [2] | pest or weed control at 200 ppm (Phakopsora pachyrhizi) | inhibition at 20 ppm [3]

O=C(NCCCCCl)c1ccc(-c2noc(C(F)(F)F)n2)cc1F [Compound 3b.20, N-(4-chlorobutyl)-2-fluoro-4-[5-(trifluoromethyl)-1,2,4-oxadiazol-3-yl]benzamide]
≥ 80%: pest or weed control at 200 ppm [1] | pest or weed control at 200 ppm [2] | pest or weed control at 200 ppm (Phakopsora pachyrhizi) | inhibition at 20 ppm [3]

O=C(NCCO)c1ccc(-c2noc(C(F)(F)F)n2)cc1F [Compound 3b.21, 2-fluoro-N-(2-hydroxyethyl)-4-[5-(trifluoromethyl)-1,2,4-oxadiazol-3-yl]benzamide]
≥ 80%: pest or weed control at 200 ppm [1] | pest or weed control at 200 ppm [2] | pest or weed control at 200 ppm (Phakopsora pachyrhizi) | inhibition at 20 ppm [3]

O=C(NCCCCCO)c1ccc(-c2noc(C(F)(F)F)n2)cc1F [Compound 3b.22, 2-fluoro-N-(5-hydroxypentyl)-4-[5-(trifluoromethyl)-1,2,4-oxadiazol-3-yl]benzamide]
≥ 80%: pest or weed control at 200 ppm [1] | pest or weed control at 200 ppm [2] | pest or weed control at 200 ppm (Phakopsora pachyrhizi) | inhibition at 20 ppm [3]

CCOCCCNC(=O)c1ccc(-c2noc(C(F)(F)F)n2)cc1F [Compound 3b.24, N-(3-ethoxypropyl)-2-fluoro-4-[5-(trifluoromethyl)-1,2,4-oxadiazol-3-yl]benzamide]
≥ 80%: pest or weed control at 200 ppm [1] | pest or weed control at 200 ppm [2] | pest or weed control at 200 ppm (Phakopsora pachyrhizi) | inhibition at 20 ppm [3]
